Each structure is given as a SMILES string. “Also recorded” adds a separate entry of the source. Counter-ions that a name gives are not always drawn. Like-named read-outs stand apart in the source and are kept apart here.

Experiment [1] concerns C57B/6 mice, transient focal cerebral ischemia (MCAo). The settings on record: 1 mg/kg/day for 3 days from onset of acute stroke; previously shown; cited from earlier work.
Experiment [2] relates to 45 receptors, channels and transporters. Briefly: Off-target binding at 45 receptors, channels and transporters (NIMH PDSP). Particulars: at 10 μM.
Experiment [3] relates to C57B/6 mice, transient focal cerebral ischemia (MCAo). Particulars: mouse, in vivo.
Another experiment deals with T1, H2 histamine receptor (Homo sapiens, UniProt P25021).
T1 construct: NIMH Psychoactive Drug Screening program
The experiment in a line: Off-target binding, NIMH Psychoactive Drug Screening program. Particulars: read-out: inhibition of binding at H2 histamine receptor.

Experiment [4] has as its system middle-aged mice after MCAo. The settings on record: dose 3 mg/kg; four weeks after MCAo; vs Veh; listed as MRS 4719, 3 mg/kg.
For the next experiment, the target named is T2, D3 dopamine receptor (Homo sapiens, UniProt P35462).
T2 construct: NIMH Psychoactive Drug Screening program
The experiment in a line: Off-target binding, NIMH Psychoactive Drug Screening program. Particulars: read-out: inhibition of binding at D3 dopamine receptor.

In experiment [5] the test system is mice, LAD ligation ischemia/reperfusion. Briefly: Myocardial ischemia/reperfusion (LAD ligation), echocardiography. Type of experiment: in vivo, mouse. The settings on record: 2 mg/kg/day s.c. minipump 3 days at reperfusion after 60 min LAD occlusion, 2 weeks or 4 weeks post-I/R, vs vehicle.
The subject of another experiment is mouse. The settings on record: cited from earlier work.
The target in the next experiment is T3, mP2X4R (Mus musculus, UniProt Q9JJX6).
T3 sequence (Q9JJX6 1-388): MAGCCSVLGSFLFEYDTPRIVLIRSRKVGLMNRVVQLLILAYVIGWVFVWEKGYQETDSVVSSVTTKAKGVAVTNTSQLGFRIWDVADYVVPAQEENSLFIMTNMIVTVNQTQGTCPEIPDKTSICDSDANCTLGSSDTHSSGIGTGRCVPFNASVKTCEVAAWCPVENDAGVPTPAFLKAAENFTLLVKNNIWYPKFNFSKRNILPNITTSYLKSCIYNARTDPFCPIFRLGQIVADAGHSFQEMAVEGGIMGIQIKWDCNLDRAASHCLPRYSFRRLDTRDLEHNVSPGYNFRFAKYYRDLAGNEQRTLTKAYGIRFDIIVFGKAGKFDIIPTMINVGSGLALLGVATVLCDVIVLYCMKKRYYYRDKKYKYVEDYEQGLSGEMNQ
Particulars: compared with hP2X4R; cited from earlier work.

The target of another experiment is T4, hP2X4R (Homo sapiens, UniProt Q99571).
T4 construct: expressed in transfected cells; host or cells: HEK-293
T4 sequence (Q99571 1-388): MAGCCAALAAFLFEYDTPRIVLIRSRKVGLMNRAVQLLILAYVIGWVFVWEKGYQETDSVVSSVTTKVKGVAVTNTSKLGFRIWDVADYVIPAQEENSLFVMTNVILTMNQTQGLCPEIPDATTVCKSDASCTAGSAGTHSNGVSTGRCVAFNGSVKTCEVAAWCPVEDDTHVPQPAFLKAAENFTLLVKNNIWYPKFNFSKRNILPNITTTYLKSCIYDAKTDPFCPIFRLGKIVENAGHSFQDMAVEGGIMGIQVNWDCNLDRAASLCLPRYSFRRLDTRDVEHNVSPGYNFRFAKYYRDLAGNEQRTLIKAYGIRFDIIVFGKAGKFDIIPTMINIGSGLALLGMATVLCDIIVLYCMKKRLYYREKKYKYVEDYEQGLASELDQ
Briefly: cell-based. Type of experiment: cell-based.

Another experiment addresses T5, hP2X1R (Homo sapiens, UniProt P51575).
T5 construct: expressed in transfected cells; host or cells: CHO-K1
T5 sequence (P51575 1-399): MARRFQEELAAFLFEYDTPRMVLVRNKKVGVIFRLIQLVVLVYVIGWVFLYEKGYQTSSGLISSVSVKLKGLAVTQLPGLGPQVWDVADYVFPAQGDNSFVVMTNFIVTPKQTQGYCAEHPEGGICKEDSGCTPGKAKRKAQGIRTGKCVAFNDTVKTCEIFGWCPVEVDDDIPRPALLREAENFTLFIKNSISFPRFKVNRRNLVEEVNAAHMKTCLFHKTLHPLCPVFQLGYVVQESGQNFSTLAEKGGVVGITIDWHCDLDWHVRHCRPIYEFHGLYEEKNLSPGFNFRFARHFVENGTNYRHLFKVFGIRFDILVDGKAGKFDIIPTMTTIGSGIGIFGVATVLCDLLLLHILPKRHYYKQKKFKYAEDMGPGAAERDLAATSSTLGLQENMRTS
The experiment in a line: cell-based. The settings on record: for inhibition at 30 µM: CHO-K1, percent inhibition at 30 μM, agonist α,β-MeATP 1.0 μM, read-out: hP2X1R % inhib.

The next experiment concerns the target T6, hP2X3R (Homo sapiens, UniProt P56373).
T6 construct: expressed in transfected cells; host or cells: CHO-K1
T6 sequence (P56373 1-397): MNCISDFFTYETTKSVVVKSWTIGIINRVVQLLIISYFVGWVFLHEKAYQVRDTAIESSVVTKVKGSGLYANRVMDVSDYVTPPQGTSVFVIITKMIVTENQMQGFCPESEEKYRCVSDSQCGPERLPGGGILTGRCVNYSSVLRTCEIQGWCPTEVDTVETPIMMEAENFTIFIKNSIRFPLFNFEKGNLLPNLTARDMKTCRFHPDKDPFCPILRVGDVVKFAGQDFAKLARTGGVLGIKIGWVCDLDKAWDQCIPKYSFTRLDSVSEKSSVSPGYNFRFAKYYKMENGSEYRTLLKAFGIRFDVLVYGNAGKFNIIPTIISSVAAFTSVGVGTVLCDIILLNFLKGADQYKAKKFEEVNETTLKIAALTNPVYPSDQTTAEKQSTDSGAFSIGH
The experiment in a line: cell-based. Type of experiment: cell-based. Particulars: for inhibition at 30 µM: CHO-K1, percent inhibition at 30 μM, agonist α,β-MeATP 1.0 μM, read-out: hP2X3R % inhib.

The target of a further experiment is T7, hP2X2/3R (Homo sapiens, UniProt P56373+Q9UBL9).
T7 construct: expressed in transfected cells; host or cells: CHO-K1
T7 sequence (Q9UBL9 1-471): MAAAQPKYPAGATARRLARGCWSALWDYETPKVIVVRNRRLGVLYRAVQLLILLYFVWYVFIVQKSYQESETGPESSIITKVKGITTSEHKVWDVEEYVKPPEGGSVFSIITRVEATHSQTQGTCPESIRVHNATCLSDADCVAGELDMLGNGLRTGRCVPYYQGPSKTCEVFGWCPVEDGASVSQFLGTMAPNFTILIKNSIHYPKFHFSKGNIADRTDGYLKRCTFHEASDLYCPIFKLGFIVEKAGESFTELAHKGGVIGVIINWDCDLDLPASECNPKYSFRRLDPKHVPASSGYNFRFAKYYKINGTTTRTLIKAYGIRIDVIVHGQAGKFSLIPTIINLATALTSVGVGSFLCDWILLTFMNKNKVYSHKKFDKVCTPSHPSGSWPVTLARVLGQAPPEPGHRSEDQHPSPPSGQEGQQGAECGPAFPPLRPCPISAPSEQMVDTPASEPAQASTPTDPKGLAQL
T7 sequence (P56373 1-397): T6 sequence (P56373 1-397)
The experiment in a line: cell-based. The class given is cell-based. Particulars: for inhibition at 30 µM: CHO-K1, percent inhibition at 30 μM, agonist α,β-MeATP 5.0 μM, read-out: hP2X2/3R % inhib.

T1 sequence (P25021 whole entry): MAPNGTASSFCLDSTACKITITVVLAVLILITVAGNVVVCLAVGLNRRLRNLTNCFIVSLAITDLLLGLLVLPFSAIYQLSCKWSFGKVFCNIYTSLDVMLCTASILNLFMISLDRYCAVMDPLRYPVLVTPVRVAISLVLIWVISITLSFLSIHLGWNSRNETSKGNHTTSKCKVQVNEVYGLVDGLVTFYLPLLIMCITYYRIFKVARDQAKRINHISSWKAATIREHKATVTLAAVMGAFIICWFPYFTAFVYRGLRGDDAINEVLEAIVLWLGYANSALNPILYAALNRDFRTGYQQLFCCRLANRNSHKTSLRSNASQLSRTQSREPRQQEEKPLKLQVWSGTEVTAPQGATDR
T2 sequence (P35462 whole entry): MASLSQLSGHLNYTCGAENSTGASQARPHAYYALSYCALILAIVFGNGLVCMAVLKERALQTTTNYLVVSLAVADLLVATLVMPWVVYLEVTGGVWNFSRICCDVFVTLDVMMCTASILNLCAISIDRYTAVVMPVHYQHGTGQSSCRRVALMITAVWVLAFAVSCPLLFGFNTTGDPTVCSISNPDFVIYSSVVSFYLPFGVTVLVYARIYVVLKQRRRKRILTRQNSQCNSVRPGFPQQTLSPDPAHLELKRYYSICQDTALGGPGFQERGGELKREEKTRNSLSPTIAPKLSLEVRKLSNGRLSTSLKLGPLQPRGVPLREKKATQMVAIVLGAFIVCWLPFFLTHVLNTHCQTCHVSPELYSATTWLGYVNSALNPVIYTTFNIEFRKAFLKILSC

In the case of `O=C1CN=C(c2cccc(Br)c2)c2oc3ccccc3c2N1` [Compound 5-BDBD, 5-(3-bromophenyl)-1,3-dihydro-2H-benzofuro[3,2-e]-1,4-diazepin-2-one], the stroke infarct size entry in [1] is on record as “reduced stroke infarct size”.

For the compound `Cc1ccc2c3c(ccc2c1)N(c1cccc(-c2noc(=S)[nH]2)c1)C(=O)CC(=O)N3` [Compound 21c, 9-Methyl-5-(3-(5-thioxo-4,5-dihydro-1,2,4-oxadiazol-3-yl)phenyl)-1,5-dihydro-2H-naphtho[1,2-b][1,4]diazepine-2,4(3H)-dione], the “off-target interactions at 45 receptors, channels and transporters” value (from here on “off-target interactions at 45 receptors”) in experiment [2] is recorded as “no significant interactions”. Also, in experiment [3] (5 mg/kg/day), the “cortical infarct volume alone” value is on record as “not statistically significant”, the “striatal infarct volume alone” value is given as “not statistically significant” and the “total hemispheric infarct volume” value was “moderate but significant decrease; also recorded: reduced total hemispheric infarct volume”.

Turning to `O=C1CC(=O)N(c2ccnc(-c3noc(=S)[nH]3)c2)c2ccc3ccccc3c2N1` [Compound 21u, 5-(2-(5-Thioxo-4,5-dihydro-1,2,4-oxadiazol-3-yl)pyridin-4-yl)-1,5-dihydro-2H-naphtho[1,2-b][1,4]diazepine-2,4(3H)-dione triethylamine salt], the inhibition at 10 µM at H2 histamine receptor is 89 ± 4%. Besides, the “learning and memory, NORT” value in [4] is listed as “significant retention of memory; also recorded: reached to statistical significance”. At D3 dopamine receptor, the inhibition at 10 µM is 74 ± 10%. In experiment [5] (listed as MRS 4719), the “decline in fractional shortening (FS)” value was “less than those in vehicle-treated mice” and the “decline in left ventricular ejection fraction (EF)” value is given as “less than those in vehicle-treated mice”. In addition, in [5] (listed as MRS4719), the “decline in fractional shortening (FS)” value is given as “lesser degree of decline” and the “decline in left ventricular ejection fraction (EF)” value is listed as “lesser degree of decline”. Also, in experiment [3], the cortical infarct volume entry was “significantly reduced”, the striatal infarct volume result is “no statistically significant decrease” and the “total hemispheric infarct volume” value was “significantly reduced”. For the same compound, the “neuroprotection based on total hemispheric infarct volume size” value in [3] (3 mg/kg) is “significant neuroprotection”.

`O=C1CC(=O)N(c2cccc(-c3noc(=S)[nH]3)c2)c2cc(Br)c3ccccc3c2N1` [Compound 21d, 7-Bromo-5-(3-(5-thioxo-4,5-dihydro-1,2,4-oxadiazol-3-yl)phenyl)-1,5-dihydro-2H-naphtho[1,2-b][1,4]diazepine-2,4(3H)-dione triethylamine salt]: the “off-target interactions at 45 receptors” value in experiment [2] was “no significant interactions”.

Regarding `O=C1CC(=O)N(c2cccc(-c3noc(=S)[nH]3)c2)c2ccc3ccccc3c2N1.[Na]` [Compound 22a, 5-(3-(5-Thioxo-4,5-dihydro-1,2,4-oxadiazol-3-yl)phenyl)-1,5-dihydro-2H-naphtho[1,2-b][1,4]diazepine-2,4(3H)-dione sodium salt], the “in vivo efficacy in the mouse” value with mouse is “considerable in vivo efficacy”. Moreover, the “potency in blocking mP2X4R effects in vitro” value on mP2X4R is given as “as potent in blocking mP2X4R effects in vitro as at hP2X4R”. Further, the “off-target interactions at 45 receptors” value in [2] is reported as “no significant interactions”.

As to `O=C1CC(=O)N(c2cccc(-c3noc(=S)[nH]3)c2)c2cc(C#Cc3cccnc3)c3ccccc3c2N1` [Compound 21n, 7-(Pyridin-3-ylethynyl)-5-(3-(5-thioxo-4,5-dihydro-1,2,4-oxadiazol-3-yl)phenyl)-1,5-dihydro-2H-naphtho[1,2-b][1,4]diazepine-2,4(3H)-dione], the inhibition at 30 µM was 34% at hP2X4R (HEK293, read-out: hP2X4R % inhib.); 9% at hP2X1R; 9% on hP2X3R; 13% on hP2X2/3R.

As a reminder, the IC50 is the concentration at which inhibition is half-maximal. Regarding `O=C1CC(=O)N(c2cc(-c3noc(=S)[nH]3)ccn2)c2ccc3ccccc3c2N1` [Compound 21s, 5-(4-(5-Thioxo-4,5-dihydro-1,2,4-oxadiazol-3-yl)pyridin-2-yl)-1,5-dihydro-2H-naphtho[1,2-b][1,4]diazepine-2,4(3H)-dione triethylamine salt], the “hP2X4R inhibitory activity relative to 22a, in words” value at hP2X4R is “reduce”. On hP2X4R (agonist CTP 10 μM (~EC80)), this compound returned an IC50 of 13.5 µM. The inhibition at 30 µM at hP2X1R was 18%; on hP2X3R, 18%; on hP2X2/3R, -6%.

As for `CCN(CC)CC.[N-]=[N+]=NCc1ccc2c3c(ccc2c1)N(c1cccc(-c2noc(=S)[nH]2)c1)C(=O)CC(=O)N3` [Compound 21j, 9-(Azidomethyl)-5-(3-(5-thioxo-4,5-dihydro-1,2,4-oxadiazol-3-yl)phenyl)-1,5-dihydro-2H-naphtho[1,2-b][1,4]diazepine-2,4(3H)-dione triethylamine salt], at hP2X4R, half-maximal inhibition (IC50) was put at 21.3 µM and the “hP2X4R inhibitory activity relative to 22a, in words” value is given as “destabilizing”. Besides, the hP2X1R % inhib. at hP2X1R was −5%. The compound further registered a hP2X3R % inhib. at hP2X3R of 0%. On hP2X2/3R, the hP2X2/3R % inhib. turned out to be 2%.

Values taken from patent US20250360143A1, “COMPOSITIONS AND METHODS FOR PHA[…] OF STROKE AND […] REPERFUSION INJURY” (priority 2022, published 2025).
